Results as given in ChEMBL document CHEMBL4033705, “Screening for bioactive natural products from a 67-compound library of Glycyrrhiza inflata” (Bioorg Med Chem, 2017).

Tests used:
[1] = molecular target: Mushroom tyrosinase (Agaricus bisporus) (UniProt O42713+Q00024+C7FF04+C7FF05); assay: Inhibition of mushroom tyrosinase at 10 uM using L-tyrosine as substrate incubated for 15 mins followed by substrate addition relative to control
[2] = molecular target: T1, Tyrosine-protein phosphatase non-receptor type 1 (Homo sapiens) (UniProt P18031); assay: Inhibition of recombinant human PTP1B using p-nitrophenyl phosphate as substrate at 10 uM after 30 mins relative to control
T1 sequence (whole entry): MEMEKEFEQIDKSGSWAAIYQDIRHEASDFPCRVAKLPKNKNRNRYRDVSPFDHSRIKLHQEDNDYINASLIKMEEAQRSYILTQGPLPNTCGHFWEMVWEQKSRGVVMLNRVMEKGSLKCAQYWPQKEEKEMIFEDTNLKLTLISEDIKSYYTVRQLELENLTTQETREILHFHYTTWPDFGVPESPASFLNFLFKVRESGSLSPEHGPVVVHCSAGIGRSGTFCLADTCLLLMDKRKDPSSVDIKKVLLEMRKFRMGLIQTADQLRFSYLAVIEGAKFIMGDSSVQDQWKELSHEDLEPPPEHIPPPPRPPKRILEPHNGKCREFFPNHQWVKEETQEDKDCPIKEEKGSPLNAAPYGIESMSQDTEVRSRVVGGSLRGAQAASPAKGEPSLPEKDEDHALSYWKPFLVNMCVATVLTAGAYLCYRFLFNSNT

[3] = system: RAW264.7; assay: Antiinflammatory activity in mouse RAW264.7 cells assessed as inhibition of LPS-induced NO production at 10 uM after 24 hrs by Griess reagent based assay relative to control; assay type: functional; details: RAW264.7, 24 h
[4] = system: HepG2; assay: Growth inhibition of human HepG2 cells at 10 uM after 24 hrs by MTS assay relative to control; assay type: functional; details: HepG2, 24 h, read-out: GI
[5] = species: Homo sapiens; assay: Inhibition of LPS-induced NF-kappaB transcription (unknown origin) expressed in human SW480 cells at 10 uM by luciferase reporter gene assay; assay type: cell-based
[6] = system: MCF7; assay: Growth inhibition of human MCF7 cells at 10 uM after 24 hrs by MTS assay relative to control; assay type: functional; details: MCF7, 24 h, read-out: GI
[7] = system: SW480; assay: Growth inhibition of human SW480 cells at 10 uM after 24 hrs by MTS assay relative to control; assay type: functional; details: SW480, 24 h, read-out: GI

SMILES	inhibition [1]	inhibition [2]	inhibition at 10 µM [3]	inhibition of growth at 10 µM [4]	inhibition [5]	inhibition of growth at 10 µM [6]	inhibition of growth at 10 µM [7]
COc1cc(O)ccc1/C=C/C(=O)c1ccc(O)cc1 [ECHINATIN]	16%	75%	26%	6%	0%	0%	24%
COc1ccc(-c2coc3cc(O)ccc3c2=O)c(O)c1 [XENOGNOSIN B]	11%	47%	1%	0%	4%	1%	13%
O=c1cc(-c2ccc(O)cc2)oc2cc(O)ccc12	11%	55%	5%	18%	0%	11%	22%
O=C(/C=C/c1ccc(O)cc1)c1ccc(O)cc1O [ISOLIQUIRITIGENIN]	12%	48%	14%	0%	6%	0%	16%
O=C(/C=C/c1ccc(O)c(O)c1)c1ccc(O)c(O)c1	16%	1%	1%	8%	13%	5%	10%
COc1cc([C@H]2COc3cc(O)ccc3C2)ccc1O	6%	2%	23%	3%	0%	14%	24%
CC(C)=CCc1cc([C@@H]2CC(=O)c3ccc(O)cc3O2)cc2c1OC(C)(C)C=C2 [ABYSSINONES III]	6%	43%	17%	9%	28%	0%	26%
CC(C)=CCc1cc2c(=O)cc(-c3ccc(O)cc3)oc2cc1O [LICOFLAVANONE A]	17%	79%	11%	5%	7%	0%	30%
CC1(C)C=Cc2cc(-c3coc4cc(O)cc(O)c4c3=O)ccc2O1	14%	27%	10%	11%	27%	2 to 23%	13 to 70%
CC(C)=CCc1c(O)cc(O)c2c(=O)c(-c3ccc(O)cc3O)coc12	17%	34%	9%	5%	8%	31%	13%
COc1ccc(-c2coc3c(O)c(O)c(CC=C(C)C)cc3c2=O)cc1	7%	74%	17%	48%	21%	4%	51%
COc1ccc(-c2coc3cc(O)ccc3c2=O)cc1 [FORMONONETIN]	10%	33%	0%	0%	3%	2%	4%
O=c1c(-c2ccc(O)cc2)coc2cc(O)cc(O)c12 [GENISTEIN]	2%	29%	13%	29%	14%	6%	21%
CC(C)=CCc1cc2c(=O)cc(-c3ccc4c(c3)C=CC(C)(C)O4)oc2cc1O	9%	33%	1%	11%	3%	7%	51%
CC(C)=CCc1c(O)cc2occ(-c3ccc(O)cc3)c(=O)c2c1O [WIGHTEONE]	15%	19%	0%	6%	11%	17%	34%
COc1ccc2c(c1)OC[C@H]1c3ccc(O)cc3O[C@@H]21	31%	2%	3%	5%	0%	20%	17%
O=C1C[C@@H](c2ccc(O)cc2)Oc2cc(O)cc(O)c21 [NARINGENIN]	10%	43%	6%	28%	22%	21%	28%
CC(C)=CCc1c(O)cc2occ(-c3ccc4c(c3)C=CC(C)(C)O4)c(=O)c2c1O [ISOCHANDALON]	3%	94%	0%	7%	3%	73%	58 to 81%
CC(C)=CCc1c(O)ccc(C(=O)/C=C/c2ccc(O)c(O)c2)c1O	14%	16%	11%	1%	14%	12%	11%
CC(C)=CCc1c(O)ccc2c1oc1c3ccc(O)cc3oc(=O)c21 [ISOSOJAGOL]	11%	21%	15%	23%	28%	12%	26%
O=c1c(-c2ccc(O)c(O)c2)coc2cc(O)ccc12	9%	28%	0%	3%	0%	0%	43%
CC(C)=CCc1c(O)ccc(-c2coc3cc(O)c(CC=C(C)C)c(O)c3c2=O)c1O	2%	78%	0%	0%	15%	4%	46%
CC1(C)C=Cc2c(ccc(-c3coc4cc(O)ccc4c3=O)c2O)O1 [GLABRONE]	3%	69%	5%	16%	15%	12%	50%
CC(C)=CCc1cc(-c2coc3cc(O)cc(O)c3c2=O)cc(O)c1O [GLYCYRRHISOFLAVONE]	8%	52%	3%	0%	8%	15%	18%
O=C1C[C@@H](c2ccc(O)cc2)Oc2cc(O)ccc21 [LIQUIRTIGENIN]	2%	36%	0%	13%	19%	27%	9%
CC(C)=CCc1cc([C@@H]2CC(=O)c3ccc(O)cc3O2)ccc1O [ABYSSINONE II]	4%	5%	8%	4%	0%	25%	22%
CC(C)=CCc1c(O)ccc(-c2cc3ccc(O)cc3o2)c1O [2'-O-DEMETHYLBIDWILLOL B]	12%	24%	32%	8%	42%	16%	36%
CC(C)=CCc1c(O)cc(O)c2c(=O)c(-c3ccc(O)cc3)coc12	16%	0%	18%	23%	25%	23%	13%
CC1(C)C=Cc2c(O)ccc([C@@H]3COc4cc(O)cc(O)c4C3=O)c2O1	9%	1%	2%	6%	24%	13%	8%
CC(C)=CCc1c(O)ccc(-c2coc3cc(O)ccc3c2=O)c1O	6%	56%	25%	11%	3%	36%	35%
